Experimental data as given in US9283161B2, “Aqueous cosmetic compositions containing resveratrol solubilized in a liquid phosphate ester surfactant” (DSM IP ASSETS B.V., priority 2011, dated 2016).

Assay: Solubilisation of resveratrol in the self emulsifying cosmetic base (mixing at 30-40° C.)
Assay type: physicochemical
Conditions: Example 2, no co-emulsifier, continuous mixing at 30-40° C.
Procedure: A self emulsifying cosmetic base exempt of co-emulsifier was prepared by dissolving resveratrol in trilaureth-4 phosphate by continuous mixing at moderate temperature (30-40° C.). […] In all cases spontaneously an aqueous emulsion was formed which upon separation (after >1 week) could be easily re-formed by mere shaking.

appearance after dissolving resveratrol in trilaureth-4 phosphate: clear solution
Compound: Oc1ccc(/C=C/c2cc(O)cc(O)c2)cc1 [resveratrol]
